# Source: patent US20230392116A1, “METHOD FOR DIFFERENTIATING CORNEAL ENDOTHELIAL CELL-LIKE CELLS FROM PLURIPOTENT STEM CELLS” (StemSight Oy, priority 2020, published 2023)
# Test system: human pluripotent stem cells (hPSC)
# Test: Differentiation of human pluripotent stem cells (hPSC) into corneal endothelial cell (CEC)-like cells
# Type: cell-based
# Conditions: for emergence of NCC markers: SB431542 and CHIR99021 as differentiation induction agents; for time at which NCC markers appeared: culture medium with about 10 μM SB431542 and about 4 μM CHIR99021 together
# Protocol: Embryonic (hESC) and induced pluripotent stem cells (iPSC) were used to generate CECs. Briefly, hPSCs were seeded on Laminin 521 (Biolamina) coated CellBind 6/12 well-plates (Corning) in 10 000-60 000 cell/cm 2 cell density. The cells were cultured in Essential 8 Flex medium (Thermo Fisher) for 24h. On day 1, Essential 8 flex medium was replaced with an induction medium supplemented with 10 μM SB431542 (Stemcell), 4 μM CHIR99021 (Stemcell) and 10 μM retinoic acid (RA, Sigma-Aldrich). Base of the induction medium consisted of KO-DMEM, 15% Knock-out serum replacement, 2 mM GlutaMax-I, 0.1 mM 2-mercaptoethanol (all from Thermo Fisher), 1% Non-essential Amino Acids, 50 U/ml Penicillin/Streptomycin. […] After day 9, CEC-like cells were formed, and harvested for analyses.
# The hPSC-derived CECs were analyzed by immunocytochemistry. Briefly, the cells were fixed with 1 or 4% paraformaldehyde (PFA, Sigma-Aldrich) for 15 minutes. Next, the cells were permeabilized for 10 minutes with 0.1% Triton X-100 (Sigma-Aldrich) followed by blocking with 3% bovine serum albumin (BSA) for 1 hour. Then the cells were first incubated with 1:400 zona occludens-1 (ZO-1; Thermo Fisher), 1:200 alpha 1 sodium potassium ATPase (Na+/K+-ATPase, Abcam) and 1:400 CD166 (BD Biosciences) primary antibodies overnight at 4° C. The cells were next treated with 1:800 Donkey anti-Rabbit IgG Secondary Antibody, Alexa Fluor 488 (Thermo Fisher) against ZO-1; 1:800 Donkey anti-Mouse IgG Secondary Antibody, Alexa Fluor 568 (Thermo Fisher) against Na+/K+-ATPase and CD166; and 1:800 Donkey anti-Goat IgG Secondary Antibody, Alexa Fluor 568 (Thermo Fisher) against OCT-3/4. […] The images of mounted cells were captured using a fluorescence microscope (Olympus IX51; Olympus, Tokyo, Japan) and prepared using image editing software (Adobe Photoshop CC 2018; Adobe Systems) […]
# Total RNA was extracted from undifferentiated hPSCs (d0), and from 3 time points during the time of hCEC induction (d3, d6 and d9) with Rneasy Minikit Plus (Qiagen). RNA concentration of each sample was determined using NanoDrop-1000 spectrophotometer (NanoDrop Technologies). […] The resulting cDNA samples were analyzed with qPCR using sequence-specific TaqMan Gene Expression Assays (Thermo Fisher) for OCT4 (Hs00999632_g1), PITX2 (Hs01553179_m1), AQP1 (Hs01028916_m1), SLC4A4 (Hs00186798_m1), and FOXC1 (Hs00559473_s1). […] Results were analyzed with the 7300 System SDS Software (Applied Biosystems) and Microsoft Excel. Based on the cycle threshold (CT) values given by the software, the relative quantification of each gene was calculated by applying the […] (Livak and Schmittgen, 2001). Results were normalized to GAPDH (Hs99999905_m1), with the undifferentiated hPSCs as the calibrator to determine the relative quantities of gene expression in each sample.
compound,measurement,value
"NC(=O)c1ccc(-c2nc(-c3ccc4c(c3)OCO4)c(-c3ccccn3)[nH]2)cc1 [SB431542, 4-[4-(1,3-Benzodioxol-5-yl)-5-(2-pyridinyl)-1H-imidazol-2-yl]-benzamide]",emergence of NCC markers,contributed to emergence of NCC markers
same,time at which NCC markers appeared,~3 days
Cc1c[nH]c(-c2cnc(NCCNc3ccc(C#N)cn3)nc2-c2ccc(Cl)cc2Cl)n1 [CHIR99021],emergence of NCC markers,contributed to emergence of NCC markers
same,time at which NCC markers appeared,~3 days
